Reference: ChEMBL document CHEMBL6114994, “Ligustrazine as a multitarget scaffold in drug design and discovery” (Bioorg Med Chem, 2025)
≈ marks a conversion by molar mass, not a printed value.

Legend:
[1] = system: MDA-MB-231; experiment: Antiproliferative activity against human MDA-MB-231 cells assessed as reduction in cell viability incubated for 72 hrs by MTT assay; type: functional, cell-based; conditions: MDA-MB-231, 72 h
[2] = system: MCF7; experiment: Antiproliferative activity against human MCF7 cells assessed as reduction in cell viability incubated for 72 hrs by MTT assay; type: functional, cell-based; conditions: MCF7, 72 h
[3] = system: HCT-116; experiment: Antiproliferative activity against human HCT-116 cells assessed as reduction in cell viability incubated for 72 hrs by MTT assay; type: functional, cell-based; conditions: HCT-116, 72 h
[4] = Inhibition of Lipoxygenase (unknown origin); set-up: species or system Homo sapiens
[5] = system: HepG2; experiment: Cytotoxicity against human HepG2 cells assessed as inhibition of cell growth at 10 uM incubated for 72 hrs by MTT assay relative to control; type: functional; set-up: scale not given: the % may be the effect or the level left
[6] = system: MDCK; experiment: Cytotoxicity against dog MDCK cells assessed as inhibition of cell growth at 10 uM relative to control; type: functional, Canis lupus familiaris; set-up: scale not given: the % may be the effect or the level left
[7] = biological target: T1, Prostaglandin G/H synthase 1 (Ovis aries, UniProt P05979); experiment: Inhibition of ovine COX-1 by EIA method
T1 sequence (P05979 whole entry): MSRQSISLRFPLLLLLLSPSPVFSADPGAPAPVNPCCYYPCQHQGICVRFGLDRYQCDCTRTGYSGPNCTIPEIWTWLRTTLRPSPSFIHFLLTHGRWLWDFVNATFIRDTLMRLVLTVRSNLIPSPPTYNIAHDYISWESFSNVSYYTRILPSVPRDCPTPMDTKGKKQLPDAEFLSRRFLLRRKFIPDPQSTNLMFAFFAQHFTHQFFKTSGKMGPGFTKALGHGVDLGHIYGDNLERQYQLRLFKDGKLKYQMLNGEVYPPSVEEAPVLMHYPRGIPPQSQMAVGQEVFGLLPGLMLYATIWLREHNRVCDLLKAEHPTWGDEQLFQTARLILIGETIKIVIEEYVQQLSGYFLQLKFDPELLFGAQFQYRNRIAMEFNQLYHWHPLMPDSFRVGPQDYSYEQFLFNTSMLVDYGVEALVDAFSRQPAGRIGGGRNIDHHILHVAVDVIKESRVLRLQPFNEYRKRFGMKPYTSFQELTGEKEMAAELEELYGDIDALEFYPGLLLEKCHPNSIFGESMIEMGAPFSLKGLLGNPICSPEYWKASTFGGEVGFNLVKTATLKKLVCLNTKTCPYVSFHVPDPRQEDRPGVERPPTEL

[8] = system: A549; experiment: cells; conditions: Homo sapiens
Description: Antiproliferative activity against human A549 cells assessed as reduction in cell viability by MTT assay

[9] = Cytoprotective activity against H2O2-induced oxidative stress in human HBMEC-2 cells assessed as increase in cell viability incubated for 24 hrs by MTT assay; type: functional, cell-based; conditions: HBMEC-2, 24 h
[10] = system: PC-12; experiment: Cytoprotective activity against COCL2-induced cellular damage in rat PC12 cells assessed as reduction in cell viability incubated for 48 hrs by MTT assay; type: functional, cell-based; conditions: PC-12, 48 h
[11] = biological target: T2, Acetylcholinesterase (Homo sapiens, UniProt P22303); experiment: Inhibition of AChE (unknown origin) by Ellman's method
[12] = system: HUVEC; experiment: Protection against H2O2-induced oxidative stress in HUVEC cells; type: functional, cell-based; conditions: Homo sapiens
[13] = system: SH-SY5Y; experiment: Cytoprotective activity against H2O2-induced oxidative stress in human SH-SY5Y cells assessed as increase in cell viability incubated for 24 hrs by MTT assay; type: functional, cell-based
[14] = system: SH-SY5Y; experiment: Cytoprotective activity against OGD/R induced human SH-SY5Y cells assessed as assessed as cell survival rate at 10 uM measured after 8 hrs by MTT assay relative to control; type: functional
[15] = Solubility in water; type: physicochemical
[16] = biological target: T2, Acetylcholinesterase; experiment: Inhibition of AChE (unknown origin)
[17] = Solubility in water by HPLC analysis; type: physicochemical
[18] = Inhibition of accumulation of sorbitol in human Red blood cells; type: functional, cell-based; conditions: erythrocyte
[19] = biological target: Aldo-keto reductase family 1 member B1 (Rattus norvegicus, UniProt P07943); experiment: Inhibition of rat lens aldose reductase

T2 sequence (P22303 whole entry): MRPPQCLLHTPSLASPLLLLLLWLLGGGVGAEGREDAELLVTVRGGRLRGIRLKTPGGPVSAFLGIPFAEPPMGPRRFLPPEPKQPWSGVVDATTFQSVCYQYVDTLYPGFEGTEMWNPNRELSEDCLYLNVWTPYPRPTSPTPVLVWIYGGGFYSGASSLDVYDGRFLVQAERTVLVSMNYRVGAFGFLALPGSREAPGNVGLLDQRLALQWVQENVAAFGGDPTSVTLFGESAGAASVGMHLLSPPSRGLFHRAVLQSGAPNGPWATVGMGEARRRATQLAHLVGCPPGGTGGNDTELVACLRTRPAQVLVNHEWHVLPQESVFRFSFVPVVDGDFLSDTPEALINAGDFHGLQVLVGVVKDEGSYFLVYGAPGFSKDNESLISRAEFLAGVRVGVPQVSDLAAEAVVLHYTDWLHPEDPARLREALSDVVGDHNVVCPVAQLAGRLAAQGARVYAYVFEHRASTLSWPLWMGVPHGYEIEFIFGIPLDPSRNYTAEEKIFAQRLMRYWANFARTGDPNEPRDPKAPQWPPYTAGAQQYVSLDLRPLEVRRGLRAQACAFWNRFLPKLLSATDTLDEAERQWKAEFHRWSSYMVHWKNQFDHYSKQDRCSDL

## O=[N+]([O-])c1ccc2c(c1)S(=O)(=O)C=C2
[1]
  IC50: 3900 nM
[2]
  IC50: 2080 nM
[3]
  IC50: 1710 nM

## Cc1nc(C)c(/C=C2\CN(C)C/C(=C\c3nc(C)c(C)nc3C)C2=O)nc1C
[4]
  IC50: 7500 nM

## C=C(C)[C@@H]1CC[C@]2(C(=O)OCc3nc(C)c(C)nc3C)CC[C@]3(C)[C@H](CC[C@@H]4[C@@]5(C)CC[C@H](O)C(C)(C)[C@@H]5CC[C@]43C)[C@@H]12
[5]
  Activity: 99.87%
[6]
  Activity: 26.5%

## COc1ccc(/C=C2\CN(C)C/C(=C\c3nc(C)c(C)nc3C)C2=O)c(Cl)c1
[7]
  IC50: 500 nM

## Cc1nc(C)c(C(=O)NC2CCN(C(=O)C3=Cc4ccccc4S3(=O)=O)CC2)nc1C
[1]
  IC50: > 10000 nM
[2]
  IC50: > 10000 nM
[3]
  IC50: > 10000 nM

## Cc1nc(C)c(C(=O)NC2CCN(C(=O)C3=Cc4ccccc4S3(=O)=O)C2)nc1C (configuration not stated)
[1]
  IC50: > 10000 nM
[2]
  IC50: > 10000 nM
[3]
  IC50: > 10000 nM

## COc1ccc(/C=C/C(=O)/C=C/c2nc(C)c(C)nc2C)cc1O
[8]
  IC50: 2190 nM

## COc1cc(CNC(=O)c2ccc(O)c(O)c2)ccc1OCc1nc(C)c(C)nc1C
[9]
  EC50: 4150 nM

## Cc1nc(C)c(COC(=O)/C=C/c2ccc(OCc3nc(C)c(C)nc3C)cc2)nc1C
[10]
  EC50: 3680 nM

## COc1cc(/C=C/C(=O)c2ccc(OCCN3CCCC3)cc2)ccc1OCc1nc(C)c(C)nc1C
[11]
  IC50: 980 nM

## COc1cc(C(=O)Nc2cccc(N(C)C)c2)ccc1OCc1nc(C)c(C)nc1C
[10]
  EC50: 17400 nM

## Cc1nc(C)c(C(=O)N2CCN(C(=O)C3=Cc4c(Br)cccc4S3(=O)=O)CC2)nc1C
[1]
  IC50: 4860 nM
[2]
  IC50: 3290 nM
[3]
  IC50: 6440 nM

## Cc1nc(C)c(/C=C/c2nc(C)c(C)nc2C)nc1C
[12]
  EC50: 25600 nM

## CC(=O)Oc1ccc(C[C@@H](OC(C)=O)C(=O)OCc2nc(C)c(C)nc2C)cc1OC(C)=O
[13]
  EC50: 2560 nM

## CCCCC(OC(=O)CN1CCN(C)CC1)c1ccc(I)cc1C(=O)OCc1nc(C)c(C)nc1C (configuration not stated)
[14]
  Activity: 90%

## Cc1nc(C)c(CN2CCN(C(=O)C3=Cc4c(Cl)cccc4S3(=O)=O)CC2)nc1C
[1]
  IC50: 2200 nM
[2]
  IC50: 1500 nM
[3]
  IC50: 2670 nM

## C=CCC(CC=C)(OC(=O)[C@@H](Cc1ccc(OC(C)=O)c(OC(C)=O)c1)OC(=O)CN)c1nc(C)c(C)nc1C
[15]
  solubility: > 0.1 µg/mL

## COC(=O)C1=CO[C@H](OC)[C@H]2C(CN3CCN(Cc4nc(C)c(C)nc4C)CC3)=CC[C@@H]12
[16]
  IC50: 218 nM

## O=c1c(-c2ccc(O)cc2)coc2cc(O)cc(O)c12 [GENISTEIN]
[17]
  solubility: 0.029 µg/mL (≈ 0.107 µM)

## O=C(/C=C/c1ccc(O)cc1)c1ccc(O)cc1O [ISOLIQUIRITIGENIN]
[18]
  IC50: 2000 nM
[19]
  IC50: 320 nM
